The experiment has as its system tau protein. Briefly: Tau protein in vitro degradation assay (Western blot, Tau-13 antibody). Format: cell-based, human. The conditions noted are these: SK-N-SH cells; 72 hours of incubation; tested at 300 nM, 100 nM, 33 nM and 11 nM; Western blot, Tau-13 antibody. In a few lines:
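SK-N-SH cells, seeded ≥18 h beforehand, were incubated 72 h with tau PROTACs at 1000, 300 and 100 nM or at 300, 100, 33 and 11 nM. Lysates in protease-inhibitor buffer were resolved by SDS-PAGE; tau quantified by Western blot with Tau-13 antibody recognising all human tau forms.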
For orientation: A western blot detects proteins with antibodies after separation by electrophoresis.
Consider `O=C1CCC(N2C(=O)c3c(F)c(F)c(OCCOCCOCCOCCOCCOc4ccc(-c5ccc6c(c5)[nH]c5ccncc56)cn4)c(F)c3C2=O)C(=O)N1` (stereo not shown) [Compound 72, 5-((14-((5-(5H-pyrido[4,3-b]indol-7-yl)pyridin-2-yl)oxy)-3,6,9,12-tetraoxatetradecyl)oxy)-2-(2,6-dioxopiperidin-3-yl)-4,6,7-trifluoroisoindoline-1,3-dione], for which the “Degradation activity* (highest amount of degradation observed at any dosage; tau protein remaining)” value was “C (>80% tau protein remaining after 72 hours of incubation with the test compound)”.

As for `Cn1c2ccncc2c2ccc(-c3ccc(O[C@H]4C[C@H](OC5CCN(CC(F)(F)CCCOc6ccc7c(c6)C(=O)N(C6CCC(=O)NC6=O)C7=O)CC5)C4)nc3)cc21` (stereo partly shown) [Compound 171, 5-((4,4-difluoro-5-(4-((1r,3r)-3-((5-(5-methyl-5H-pyrido[4,3-b]indol-7-yl)pyridin-2-yl)oxy)cyclobutoxy)piperidin-1-yl)pentyl)oxy)-2-(2,6-dioxopiperidin-3-yl)isoindoline-1,3-dione], the “Degradation activity (tau protein remaining; highest amount of degradation observed at any dosage)” value was “C (>80% tau protein remaining after 72 hours of incubation with the test compound)”.

Regarding `O=C1CCC(N2C(=O)c3ccc(OCCOCCOCCOCCOCCOc4ccc(-c5ccc6c7cnccc7n(CC(F)(F)F)c6c5)cn4)cc3C2=O)C(=O)N1` (stereo not shown) [Compound 88, 2-(2,6-dioxopiperidin-3-yl)-5-((14-((5-(5-(2,2,2-trifluoroethyl)-5H-pyrido[4,3-b]indol-7-yl)pyridin-2-yl)oxy)-3,6,9,12-tetraoxatetradecyl)oxy)isoindoline-1,3-dione], the “Degradation activity* (highest amount of degradation observed at any dosage; tau protein remaining)” value is “A (≤50% tau protein remaining after 72 hours of incubation with the test compound)”.

With `Cn1c2ccncc2c2ccc(-c3ccc(N4CCC(CN5CCN(c6ccc7c(c6)CN(C6CCC(=O)NC6=O)C7=O)CC5)CC4)nc3)cc21` (stereo not shown) [Compound 127, 3-(5-(4-((1-(5-(5-methyl-5H-pyrido[4,3-b]indol-7-yl)pyridin-2-yl)piperidin-4-yl)methyl)piperazin-1-yl)-1-oxoisoindolin-2-yl)piperidine-2,6-dione], the “Degradation activity* (highest amount of degradation observed at any dosage; tau protein remaining)” value is “C (>80% tau protein remaining after 72 hours of incubation with the test compound)”.

As to `O=C1CCC(N2C(=O)c3ccc(N4CCN(CCCO[C@H]5C[C@@H](Oc6ccc(-c7ccc8c(c7)[nH]c7ccncc78)cn6)C5)CC4)cc3C2=O)C(=O)N1` (stereo partly shown) [Compound 53, 5-(4-(3-((1s,3s)-3-((5-(5H-pyrido[4,3-b]indol-7-yl)pyridin-2-yl)oxy)cyclobutoxy)propyl)piperazin-1-yl)-2-(2,6-dioxopiperidin-3-yl)isoindoline-1,3-dione], the “Degradation activity* (highest amount of degradation observed at any dosage; tau protein remaining)” value is reported as “C (>80% tau protein remaining after 72 hours of incubation with the test compound)”.

Take `Cn1c2ccncc2c2ccc(-c3ccc(O[C@H]4C[C@H](N(C)C5CC6(C5)CN(CCCCCOc5ccc7c(c5)C(=O)N(C5CCC(=O)NC5=O)C7=O)C6)C4)nc3)cc21` (stereo partly shown) [Compound 126, 2-(2,6-dioxopiperidin-3-yl)-5-((5-(6-(methyl((1r,3r)-3-((5-(5-methyl-5H-pyrido[4,3-b]indol-7-yl)pyridin-2-yl)oxy)cyclobutyl)amino)-2-azaspiro[3.3]heptan-2-yl)pentyl)oxy)isoindoline-1,3-dione]: the “Degradation activity* (highest amount of degradation observed at any dosage; tau protein remaining)” value is “B (≤80% and >50% tau protein remaining after 72 hours of incubation with the test compound)”.

`Cn1c2ccncc2c2ccc(-c3ccc(O[C@H]4C[C@H](OCCOCCOCCOCC5CN(c6ccc7c(c6)C(=O)N(C6CCC(=O)NC6=O)C7=O)C5)C4)nc3)cc21` (stereo partly shown) [Compound 206, 2-(2,6-dioxopiperidin-3-yl)-5-(3-((2-(2-(2-((1r,3r)-3-((5-(5-methyl-5H-pyrido[4,3-b]indol-7-yl)pyridin-2-yl)oxy)cyclobutoxy)ethoxy)ethoxy)ethoxy)methyl)azetidin-1-yl)isoindoline-1,3-dione]: the “Degradation activity (tau protein remaining; highest amount of degradation observed at any dosage)” value is “B (≤80% and >50% tau protein remaining after 72 hours of incubation with the test compound)”.

For the origin of these results see patent US11458123B2 (Arvinas, Inc., priority 2016, dated 2022).
